Data taken from patent US20240400545A1, “COMPOUND SERVING AS KAT6 INHIBITOR” (Hangzhou Innogate Pharma Co., Ltd., priority 2021, published 2024).
Read-outs that look alike come from different tables or passages of the source.

Columns and labels:
[1] = biological target: KAT6A enzyme (catalytic domain) (Homo sapiens (Human), UniProt Q92794); experiment: Inhibition of KAT6A enzyme activity ([3H]-acetyl-CoA / H3 (1-21) peptide, Flashplate); assay type: biochemical; conditions: for IC50: KAT6A catalytic domain, [3H]-acetyl-CoA, substrate peptide H3 (1-21); for inhibition at 0.011 µM: KAT6A, compound concentration 11 nM, read-out: Inhibition % of compounds at the concentration of 11 nM
Method: No. […] The plate was incubated at room temperature for 1 hour. 10 μL of the stop solution was added to terminate the reaction. 25 μL of the reaction solution was transferred to a Flashplate (Perkin Elmer, Cat. No. […]) and incubated at room temperature for 1 hour. The plate was read using Microbeta. The inhibition rate of the compounds was calculated using the formula of Excel: inhibition %=(Max-Signal)/(Max-Min)*100%. Where max is the value of the DMSO control, min is the value of the non-enzymatic control, and signal is the value of the well where the compound was tested. The curve was fitted using XLFit software and IC50 was calculated.

[2] = rat, in vivo, po, 3 mg/kg
Method: (§1) All measurement data were collected and processed by Masslynx V4.1 software, and the data were calculated and processed by Microsoft Excel. The statistical moment method of WinNonLin 8.0 software was used to calculate the pharmacokinetic parameters. These mainly include kinetic parameters Tmax, T1/2, Cmax, AUC0-24 h etc. Column: ACQUITY UPLC BEH C18 (2.1 mm×50 mm, 1.7 μm); column temperature 40° C.; mobile phase A is water (0.1% formic acid), mobile phase B is acetonitrile, flow rate is 0.350 mL/min, gradient elution is adopted, the elution gradient is 0.50 min: 10% B; 1.50 min: 90% B; 2.50 min: 90% B; 2.51 min: 10% B; 3.50 min: stop. Injection volume: 1 μL.
(§2) Animals: 3 male SD rats with a weight range of 200-220 g were purchased and kept in the laboratory of the Experimental Animal Center for 2 days and then used. They were fasted for 12 hours predose and 4 hours after dosing. Drinking water was free during the test. After the rats were gavage, blood samples were taken according to the established time point.
(§3) Solvent: 0.4% ethanol+0.4% Tween80+99.2% (0.5% methylcellulose M450). Preparation of the solution for intragastrical administration: the compounds were accurately weighed and added to the solvent, and ultrasound was used at room temperature for 5 minutes to completely dissolve the drug, and a 0.3 mg/mL medicinal solution was prepared.
(§4) A single administration was also used to study the pharmacokinetics of the drug sample in rats.
(§5) After intragastrical administration, blood was taken from the orbit at 0.25, 0.5, 1, 2, 4, 8, 10 and 24 hours. Then 50 μL of the plasma sample was taken and added 200 μL of acetonitrile (including internal standard control verapamil 2 ng/mL), vortexed for 3 min and centrifuged at 20000 rcf, 4° C. for 10 min. The supernatant plasma was used for LC-MS/MS analysis.
(§6) The compounds were accurately weighed to prepare different concentrations, and quantitative analysis on mass spectrometry was performed to establish a standard curve, and then the concentration of the above-mentioned compound in the plasma was tested to obtain its concentration at different time points. All measurement data were collected and processed by relevant software, and the statistical moment method was used to calculate the pharmacokinetic parameters (mainly including kinetic parameters Tmax, T1/2, Cmax, AUC0-24 h etc).

[3] = Pharmacokinetic study in rats (intragastrical administration); conditions: plasma
Method: as §1, §2, §3, §4, §5, §6

[4] = male SD rats, intragastrical, 1.5 mg/Kg

KAT6A enzyme (catalytic domain), sequence (Q92794 504-778): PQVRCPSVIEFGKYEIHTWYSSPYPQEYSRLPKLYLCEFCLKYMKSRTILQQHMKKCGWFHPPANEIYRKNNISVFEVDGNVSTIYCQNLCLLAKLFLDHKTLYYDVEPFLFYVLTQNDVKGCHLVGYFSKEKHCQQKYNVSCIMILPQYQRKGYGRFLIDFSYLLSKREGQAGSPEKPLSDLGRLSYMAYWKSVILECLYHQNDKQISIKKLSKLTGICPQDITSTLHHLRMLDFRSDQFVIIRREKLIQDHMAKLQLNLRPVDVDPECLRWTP

SMILES	IC50 [1] [nM]	AUC(0-t) ([3]; male, SD, rat, po, 3 mg/kg) [ng·h/mL]	Cmax ([3]; male, SD, rat, po, 3 mg/kg) [ng/mL]	Tmax ([3]; male, SD, rat, po, 3 mg/kg) [h]	half-life ([3]; male, SD, rat, po, 3 mg/kg) [h]	further results
C#Cc1cc(OC)c(S(=O)(=O)Nc2noc3cc(Cn4cccn4)cc(OC)c23)c(OC)c1 [Compound 4]	< 5					AUC0-24h [2]: 109958.71 ng·h/mL; Cmax [2]: 6737.13 ng/mL; T1/2 [2]: 8.04 h; Tmax [2]: 9.33 h
COc1cc(C#CC2CC(F)(F)C2)cc(OC)c1S(=O)(=O)Nc1noc2cc(Cn3cccn3)cc(OC)c12 [Compound 15]		32500	2120	3.33	7.85	
COc1ccc(OC2CCC2)cc1S(=O)(=O)Nc1noc2cc(Cn3cccn3)cc(OC)c12 [Compound 1]	< 5					AUC0-24h [3, 4]: 4481.07 ng·h/mL; Cmax [3, 4]: 392.76 ng/mL; T1/2 [3, 4]: 2.66 h; Tmax [3, 4]: 3.00 h
COc1cc(C#CC2CC2)ccc1S(=O)(=O)Nc1noc2cc(Cn3cccn3)cc(OC)c12 [Compound 12]		82200	4830	2	24.6	
COc1cc(C#CC2COC2)cc(OC)c1S(=O)(=O)Nc1noc2cc(Cn3cccn3)cc(OC)c12 [Compound 14]		5960	428	3.33	6.62	inhibition at 0.011 µM [1]: 67%
COc1ccc(N2CCC2)cc1S(=O)(=O)Nc1noc2cc(Cn3cccn3)cc(OC)c12 [Compound 2]	< 10					
C#Cc1ccc(S(=O)(=O)Nc2noc3cc(Cn4cccn4)cc(OC)c23)c(OC)c1 [Compound 11]						AUC(0-t) ([3]; male, SD, rat, po, 2 mg/kg): 53700 ng·h/mL; Cmax ([3]; male, SD, rat, po, 2 mg/kg): 6380 ng/mL; Tmax ([3]; male, SD, rat, po, 2 mg/kg): 1.33 h; half-life ([3]; male, SD, rat, po, 2 mg/kg): 5.29 h
COc1cc(N2CCC2)ccc1S(=O)(=O)Nc1noc2cc(Cn3cccn3)cc(OC)c12 [Compound 17]		3120	229	2.67	3.17	inhibition at 0.011 µM [1]: 75%
CC#Cc1ccc(S(=O)(=O)Nc2noc3cc(Cn4cccn4)cc(OC)c23)c(OC)c1 [Compound 16]		45300	2790	2.67	14.4	
